US20230242830A1 (priority 2020, published 2023)

Columns and labels:
[1] = molecular target: T1, human erythrocyte AChE (hAChE) (Homo sapiens, UniProt P22303); test: acetylcholinesterase inhibition, Ellman spectrometric method; type: biochemical
T1 construct: The human erythrocyte AChE (hAChE, aqueous buffer solution); purchased Sigma Aldrich; host or cells: human erythrocytes (natural source)
Protocol: (§1) In the extent that the toxic activity of TCP especially involves its action on cholinesterases, the effect of the compounds used according to the invention, as well as comparative compounds, on two cholinesterases was studied. The concentration values of each compound required to inhibit 50% of the activity of two cholinesterases were measured. The higher the 50% inhibitory concentration (IC50), the less the compound is neurotoxic since it has a weaker action on the cholinesterase.
(§2) The inhibitory capacity of the compounds on the acetylcholinesterase (AChE) and butyrylcholinesterase (BuChE) biological activity was assessed using the spectrometric method of Ellman (Ellman et al., Biochem. Pharm. 1961, 7, 88-95).
(§3) The acetylthiocholine and butyrylthiocholine iodide, and 5,5-dithiobis (2-nitrobenzoic) acid (DTNB) were purchased from Sigma Aldrich (Steinheim, Germany).
(§4) The BuChE freeze-dried from equine serum (eqBuChE, Sigma Aldrich) was dissolved in 0.1 M phosphate buffer (pH 7.4) to obtain enzyme stock solutions with an enzymatic activity of 2.5 units/mL. The human erythrocyte AChE (hAChE, aqueous buffer solution, ≥500 units/mg of protein (BCA), Sigma Aldrich) was diluted in 20 mM HEPES buffer, pH 8, with 0.1% Triton X-100 to obtain enzymatic solution with an enzymatic activity of 0.25 unit/mL.
(§5) In the procedure, 100 µL of 0.3 mM DTNB dissolved in phosphate buffer, pH 7.4, were added in 96-well plates, followed by 50 µL solution of the test compound and 50 µL enzyme (final 0.05 U). After 5 minutes of pre-incubation at 25° C., the reaction was initiated by injecting 50 µL of 0.1 mM acetyl or butyryl thiocholine iodide solution. The acetyl or butyryl thiocholine hydrolysis was followed by the formation of yellow 5-thio 2-nitrobenzoate anion as the product of the reaction of DTNB with the thiocholine released by the enzymatic hydrolysis of the acetyl or butyryl thiocholine, at a wavelength of 412 nm, using a microplate reader (Synergy 2, Biotek, Colmar, France). The compounds to be tested were dissolved to 5×10^-3 M in analytical grade DMSO. Donepezil or tacrine were used as reference standards. The absorption increase rate at 412 nm was determined 4 minutes after the addition of the acetyl or butyryl thiocholine iodide solution. The tests were carried out with a blank containing all the compounds except the acetyl or butyryl thiocholine in order to take into account non-enzymatic reactions.
(§6) The percentage of inhibition due to the presence of the test compounds was calculated using the following expression: […]
(§7) wherein vi is the rate calculated in the presence of the inhibitor, and v0 is the enzymatic activity.
(§8) IC50 values were graphically determined by plotting the percentage of inhibition as a function of the logarithm of six inhibitor concentrations in the test solution using the GraphPadPrism software (version 6.01, GraphPad Software, La Jolla, Calif., USA). All the experiments were carried out in n=3.

[2] = molecular target: T2, BuChE from equine serum (eqBuChE) (Equus caballus, UniProt P81908); test: butyrylcholinesterase inhibition, Ellman spectrometric method; type: biochemical
T2 construct: The BuChE freeze-dried from equine serum (eqBuChE, Sigma Aldrich); purchased Sigma Aldrich; host or cells: equine serum (natural source)
Protocol: as §1, §2, §3, §4, §5, §6, §7, §8

T1 sequence (P22303 32-617 isoform P22303-2 limits assumed): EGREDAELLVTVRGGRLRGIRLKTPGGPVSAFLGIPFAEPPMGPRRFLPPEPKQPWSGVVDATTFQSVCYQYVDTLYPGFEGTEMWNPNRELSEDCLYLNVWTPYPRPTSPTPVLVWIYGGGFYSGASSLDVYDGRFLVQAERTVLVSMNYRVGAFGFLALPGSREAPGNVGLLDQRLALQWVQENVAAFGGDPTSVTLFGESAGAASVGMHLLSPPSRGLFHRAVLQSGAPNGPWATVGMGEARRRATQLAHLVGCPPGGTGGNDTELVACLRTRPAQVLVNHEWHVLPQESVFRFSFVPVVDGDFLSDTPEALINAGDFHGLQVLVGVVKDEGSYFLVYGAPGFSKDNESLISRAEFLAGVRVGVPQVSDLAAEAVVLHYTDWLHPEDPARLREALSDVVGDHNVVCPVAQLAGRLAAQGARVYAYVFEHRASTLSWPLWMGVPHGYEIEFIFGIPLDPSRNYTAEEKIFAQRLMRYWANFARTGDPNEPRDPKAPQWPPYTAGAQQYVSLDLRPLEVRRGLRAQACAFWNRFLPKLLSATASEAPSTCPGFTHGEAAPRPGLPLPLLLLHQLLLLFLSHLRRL
T2 sequence (P81908 whole entry): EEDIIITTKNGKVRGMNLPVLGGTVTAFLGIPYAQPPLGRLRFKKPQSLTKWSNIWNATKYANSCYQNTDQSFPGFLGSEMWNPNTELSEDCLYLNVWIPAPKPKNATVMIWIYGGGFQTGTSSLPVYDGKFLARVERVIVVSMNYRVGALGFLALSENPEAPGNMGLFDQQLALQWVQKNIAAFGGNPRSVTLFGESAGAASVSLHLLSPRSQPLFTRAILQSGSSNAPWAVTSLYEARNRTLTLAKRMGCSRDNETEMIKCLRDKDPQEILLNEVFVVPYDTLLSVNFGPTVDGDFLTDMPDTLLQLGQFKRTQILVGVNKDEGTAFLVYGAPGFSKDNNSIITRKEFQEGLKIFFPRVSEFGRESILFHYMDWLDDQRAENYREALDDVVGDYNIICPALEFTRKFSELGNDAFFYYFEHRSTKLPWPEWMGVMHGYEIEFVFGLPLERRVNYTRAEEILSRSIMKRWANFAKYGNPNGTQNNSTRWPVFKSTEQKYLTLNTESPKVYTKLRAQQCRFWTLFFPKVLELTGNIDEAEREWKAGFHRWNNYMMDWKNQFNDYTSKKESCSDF

Row | Compound | IC50 [1] [µM] | IC50 [2] [µM] | inhibition on butyrylcholinesterase / lC50 for eqBuChE, in words [2] | lC50 hAChE ([1]; Table 1, n=3) [mq/L] | lC50 eqBuChE ([2]; Table 1, n=3) [mg/L]
1 | O=P(Oc1ccccc1)(Oc1ccccc1)Oc1ccc(OP(=O)(Oc2ccccc2)Oc2ccccc2)c(-c2ccccc2)c1 [Compound 11, phenylhydroquinone bis(diphenylphosphate)] | 35.5 | 25.8 |  |  | 
2 | CC(C)(C)c1cc(OP(=O)(Oc2ccccc2)Oc2ccccc2)ccc1OP(=O)(Oc1ccccc1)Oc1ccccc1 [Compound 12, tert-butyl hydroquinone bis(diphenylphosphate)] | 23.8 | 104 |  |  | 
3 | CC(C)(C)c1cc(OP(=O)(Oc2ccccc2)Oc2ccccc2)c(C(C)(C)C)cc1OP(=O)(Oc1ccccc1)Oc1ccccc1 [Compound 13, 2,5-di-tert-butyl hydroquinone bis(diphenylphosphate)] | 27.1 | 111 |  |  | 
4 | O=P(Oc1ccccc1)(Oc1ccccc1)Oc1ccc(OP(=O)(Oc2ccccc2)Oc2ccccc2)c2ccccc12 [Compound 14, 1,4-dihydroxynaphthalene bis(diphenylphosphate)] | 27.4 | 127 |  |  | 
5 | O=P(Oc1ccccc1)(Oc1ccccc1)Oc1ccc2ccc(OP(=O)(Oc3ccccc3)Oc3ccccc3)cc2c1 [Compound 15, 2,7-dihydroxynaphthalene bis(diphenylphosphate)] | 28.8 | 90.1 |  |  | 
6 | O=C(c1ccc(OP(=O)(Oc2ccccc2)Oc2ccccc2)cc1)c1ccc(OP(=O)(Oc2ccccc2)Oc2ccccc2)cc1 [Compound 16, 4,4′-dihydroxybenzophenone bis(diphenylphosphate)] | 39.8 | 164 |  |  | 
7 | O=P(Oc1ccccc1)(Oc1ccccc1)Oc1ccc(S(=O)(=O)c2ccc(OP(=O)(Oc3ccccc3)Oc3ccccc3)cc2)cc1 [Compound 17, bis(4-dihydroxyphenyl)sulfone bis(diphenylphosphate)] | 30.2 | 96.4 |  |  | 
8 | O=P(Oc1ccccc1)(Oc1ccccc1)Oc1ccc(C(c2ccc(OP(=O)(Oc3ccccc3)Oc3ccccc3)cc2)(C(F)(F)F)C(F)(F)F)cc1 [Compound 18] | 34 | 141 |  |  | 
9 | CC(c1ccccc1)(c1ccc(OP(=O)(Oc2ccccc2)Oc2ccccc2)cc1)c1ccc(OP(=O)(Oc2ccccc2)Oc2ccccc2)cc1 [Compound 19, 4,4′-(α-methylbenzylidene)bisphenol bis(diphenylphosphate)] | 46 | 147 |  |  | 
10 | O=P(Oc1ccccc1)(Oc1ccccc1)Oc1ccc(C2(c3ccc(OP(=O)(Oc4ccccc4)Oc4ccccc4)cc3)CCCCC2)cc1 [Compound 20, 1,1-bis-(4-hydroxyphenyl)cyclohexane bis(diphenylphosphate)] | 35.5 | 399 |  |  | 
11 | O=P(Oc1ccccc1)(Oc1ccccc1)Oc1ccc(C2(c3ccc(OP(=O)(Oc4ccccc4)Oc4ccccc4)cc3)c3ccccc3-c3ccccc32)cc1 [Compound 21, 9,9-bis(4-hydroxyphenyl)fluorene bis(diphenylphosphate)] | 29.6 | 106 |  |  | 
12 | CC(c1ccc(OP(=O)(Oc2ccccc2)Oc2ccccc2)cc1)(c1ccc(OP(=O)(Oc2ccccc2)Oc2ccccc2)cc1)c1ccc(OP(=O)(Oc2ccccc2)Oc2ccccc2)cc1 [Compound 23, 1,1,1-Tris(4-hydroxyphenyl)ethane tris(diphenylphosphate)] | 19.8 | 70.9 |  |  | 
13 | CC(C)(C)c1ccc(OP(=O)(Oc2ccc(C(C)(C)C)cc2)Oc2ccc(C(C)(C)C)cc2)cc1 [Compound I2, Tri(p-tert-butylphenyl)phosphate, reference compound] |  |  | reduced inhibition |  | 
14 | O=P(Oc1ccccc1)(Oc1ccccc1)Oc1cc(OP(=O)(Oc2ccccc2)Oc2ccccc2)c2ccccc2c1 [X, 1,3-dihydroxynaphthalene bis(diphenylphosphate), reference compound] | 26.4 | 7.21 |  |  | 
15 | O=P(Oc1ccccc1)(Oc1ccccc1)Oc1ccc(OP(=O)(Oc2ccccc2)Oc2ccccc2)c(Cl)c1 [Y, 2-chlorohydroquinone bis(diphenylphosphate), reference compound] | 41.1 | 1 |  |  | 
16 | CC(=O)c1cc(OP(=O)(Oc2ccccc2)Oc2ccccc2)ccc1OP(=O)(Oc1ccccc1)Oc1ccccc1 [Z, (2,5-dihydroxy)1-acetophenone bis(diphenylphosphate), reference compound] | 29.8 | 0.114 |  |  | 
17 | dimer diol (C34-36) bis(diphenylphosphate) [Compound 22] |  |  |  | 15.6 | 88.3
